In PubChem BioAssay (NCI):
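96-well plates; 48 h exposure; 5 concentrations. Endpoints by linear interpolation between flanking doses. Not reached: highest tested concentration assigned. At the GI50, growth is halved. TGI: concentration producing complete growth inhibition.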

Tests used:
Assay in all cases: DTP human tumour cell line panel, 48 h
U251 CNS = test system: U251 CNS
SK-MEL-28 melanoma = test system: SK-MEL-28 melanoma
COLO 205 colon = test system: COLO 205 colon
HOP-62 NSCLC = test system: HOP-62 NSCLC
SW-620 colon = test system: SW-620 colon
RXF 393 renal = test system: RXF 393 renal
NCI-H226 lung = test system: NCI-H226 lung
BT-549 breast = test system: BT-549 breast
HCC-2998 colon = test system: HCC-2998 colon
SF-539 CNS = test system: SF-539 CNS
OVCAR-5 ovarian = test system: OVCAR-5 ovarian
IGROV1 ovarian = test system: IGROV1 ovarian
MDA-MB-435 = test system: MDA-MB-435
SK-OV-3 ovarian = test system: SK-OV-3 ovarian
CCRF-CEM leukemia = test system: CCRF-CEM leukemia
SNB-19 CNS = test system: SNB-19 CNS
OVCAR-3 ovarian = test system: OVCAR-3 ovarian
TK-10 renal = test system: TK-10 renal
SNB-75 CNS = test system: SNB-75 CNS
HCT-116 colon = test system: HCT-116 colon
A498 renal = test system: A498 renal
CAKI-1 renal = test system: CAKI-1 renal
HS 578T breast = test system: HS 578T breast
MOLT-4 leukemia = test system: MOLT-4 leukemia
DU-145 prostate = test system: DU-145 prostate
MDA-MB-231 breast = test system: MDA-MB-231 breast
EKVX NSCLC = test system: EKVX NSCLC
MCF7 breast = test system: MCF7 breast
NCI-H23 lung = test system: NCI-H23 lung
UO-31 renal = test system: UO-31 renal
UACC-62 melanoma = test system: UACC-62 melanoma
SK-MEL-5 melanoma = test system: SK-MEL-5 melanoma
HL-60(TB) leukemia = test system: HL-60(TB) leukemia
M14 melanoma = test system: M14 melanoma
SN12C renal = test system: SN12C renal
NCI-H460 lung = test system: NCI-H460 lung
NCI/ADR-RES ovarian = test system: NCI/ADR-RES ovarian
OVCAR-8 ovarian = test system: OVCAR-8 ovarian
PC-3 prostate = test system: PC-3 prostate
786-0 renal = test system: 786-0 renal
SF-295 CNS = test system: SF-295 CNS
HOP-92 NSCLC = test system: HOP-92 NSCLC
RPMI-8226 leukemia = test system: RPMI-8226 leukemia
T-47D breast = test system: T-47D breast
NCI-H522 lung = test system: NCI-H522 lung
LOX IMVI melanoma = test system: LOX IMVI melanoma
A549 NSCLC = test system: A549 NSCLC
SK-MEL-2 melanoma = test system: SK-MEL-2 melanoma
SF-268 CNS = test system: SF-268 CNS
OVCAR-4 ovarian = test system: OVCAR-4 ovarian
UACC-257 melanoma = test system: UACC-257 melanoma
MDA-MB-468 breast = test system: MDA-MB-468 breast
HCT-15 colon = test system: HCT-15 colon
KM12 colon = test system: KM12 colon
K-562 leukemia = test system: K-562 leukemia
ACHN renal = test system: ACHN renal
HT29 colon = test system: HT29 colon
MALME-3M melanoma = test system: MALME-3M melanoma

SMILES: CN1CCc2c(sc3ncnc(N/N=C/c4cn(-c5ccccc5)nc4-c4ccc(Br)cc4)c23)C1
- GI50 (U251 CNS): 0.636 µM
- TGI (U251 CNS): > 100 µM
- GI50 (SK-MEL-28 melanoma): > 100 µM
- TGI (SK-MEL-28 melanoma): > 100 µM
- GI50 (COLO 205 colon): 0.332 µM
- TGI (COLO 205 colon): > 100 µM
- GI50 (HOP-62 NSCLC): 0.399 µM
- TGI (HOP-62 NSCLC): > 100 µM
- GI50 (SW-620 colon): 0.352 µM
- TGI (SW-620 colon): > 100 µM
- GI50 (RXF 393 renal): 18.3 µM
- TGI (RXF 393 renal): > 80.7 µM
- GI50 (NCI-H226 lung): > 100 µM
- TGI (NCI-H226 lung): > 100 µM
- GI50 (BT-549 breast): > 100 µM
- TGI (BT-549 breast): > 100 µM
- GI50 (HCC-2998 colon): 0.285 µM
- TGI (HCC-2998 colon): > 100 µM
- GI50 (SF-539 CNS): 0.282 µM
- TGI (SF-539 CNS): > 100 µM
- GI50 (OVCAR-5 ovarian): > 100 µM
- TGI (OVCAR-5 ovarian): > 100 µM
- GI50 (IGROV1 ovarian): 0.322 µM
- TGI (IGROV1 ovarian): > 100 µM
- GI50 (MDA-MB-435): > 100 µM
- TGI (MDA-MB-435): > 100 µM
- GI50 (SK-OV-3 ovarian): > 100 µM
- TGI (SK-OV-3 ovarian): > 100 µM
- GI50 (CCRF-CEM leukemia): 0.196 µM
- TGI (CCRF-CEM leukemia): > 100 µM
- GI50 (SNB-19 CNS): 20.3 µM
- TGI (SNB-19 CNS): > 100 µM
- GI50 (OVCAR-3 ovarian): 0.0375 µM
- TGI (OVCAR-3 ovarian): 0.304 µM
- GI50 (TK-10 renal): > 100 µM
- TGI (TK-10 renal): > 100 µM
- GI50 (SNB-75 CNS): 5.88 µM
- TGI (SNB-75 CNS): > 100 µM
- GI50 (HCT-116 colon): 0.102 µM
- TGI (HCT-116 colon): > 100 µM
- GI50 (A498 renal): > 100 µM
- TGI (A498 renal): > 100 µM
- GI50 (CAKI-1 renal): > 100 µM
- TGI (CAKI-1 renal): > 100 µM
- GI50 (HS 578T breast): 16.4 µM
- TGI (HS 578T breast): > 100 µM
- GI50 (MOLT-4 leukemia): 0.261 µM
- TGI (MOLT-4 leukemia): > 100 µM
- GI50 (DU-145 prostate): > 100 µM
- TGI (DU-145 prostate): > 100 µM
- GI50 (MDA-MB-231 breast): 0.362 µM
- TGI (MDA-MB-231 breast): > 100 µM

SMILES: Brc1ccc(N/N=C/c2c[nH]c3ccc(Br)cc23)nc1
- GI50 (EKVX NSCLC): 1.74 µM
- TGI (EKVX NSCLC): 10.9 µM
- GI50 (MCF7 breast): 1.59 µM
- TGI (MCF7 breast): 7.85 µM
- GI50 (U251 CNS): 2.54 µM
- TGI (U251 CNS): 10.5 µM
- GI50 (SK-MEL-28 melanoma): 3.58 µM
- TGI (SK-MEL-28 melanoma): 13.2 µM
- GI50 (NCI-H23 lung): 2.14 µM
- TGI (NCI-H23 lung): 8.21 µM
- GI50 (UO-31 renal): 0.532 µM
- TGI (UO-31 renal): 7.55 µM
- GI50 (COLO 205 colon): 2.07 µM
- TGI (COLO 205 colon): 5 µM
- GI50 (HOP-62 NSCLC): 3.14 µM
- TGI (HOP-62 NSCLC): 13 µM
- GI50 (SW-620 colon): 2.85 µM
- TGI (SW-620 colon): 11.7 µM
- GI50 (UACC-62 melanoma): 0.862 µM
- TGI (UACC-62 melanoma): 10.9 µM
- GI50 (SK-MEL-5 melanoma): 2.56 µM
- TGI (SK-MEL-5 melanoma): 8.54 µM
- GI50 (HL-60(TB) leukemia): 1.7 µM
- TGI (HL-60(TB) leukemia): 18.7 µM
- GI50 (M14 melanoma): 2.03 µM
- TGI (M14 melanoma): 5.31 µM
- GI50 (SN12C renal): 1.05 µM
- TGI (SN12C renal): 9.73 µM
- GI50 (RXF 393 renal): 1.85 µM
- TGI (RXF 393 renal): 5.64 µM
- GI50 (NCI-H460 lung): 2.7 µM
- TGI (NCI-H460 lung): 8.64 µM
- GI50 (NCI-H226 lung): 0.674 µM
- TGI (NCI-H226 lung): 10.3 µM
- GI50 (NCI/ADR-RES ovarian): 2.79 µM
- TGI (NCI/ADR-RES ovarian): 12.4 µM
- GI50 (OVCAR-8 ovarian): 2.96 µM
- TGI (OVCAR-8 ovarian): 17 µM
- GI50 (BT-549 breast): 0.259 µM
- TGI (BT-549 breast): 5.39 µM
- GI50 (HCC-2998 colon): 1.74 µM
- TGI (HCC-2998 colon): 3.55 µM
- GI50 (PC-3 prostate): 0.851 µM
- TGI (PC-3 prostate): 10.1 µM
- GI50 (786-0 renal): 2.5 µM
- TGI (786-0 renal): 8.24 µM
- GI50 (SF-295 CNS): 1.74 µM
- TGI (SF-295 CNS): 3.56 µM
- GI50 (SF-539 CNS): 0.795 µM
- TGI (SF-539 CNS): 8.06 µM
- GI50 (OVCAR-5 ovarian): 2.32 µM
- TGI (OVCAR-5 ovarian): 9.51 µM
- GI50 (HOP-92 NSCLC): 1.51 µM
- TGI (HOP-92 NSCLC): 4.27 µM
- GI50 (IGROV1 ovarian): 0.251 µM
- TGI (IGROV1 ovarian): 1.89 µM
- GI50 (MDA-MB-435): 3.45 µM
- TGI (MDA-MB-435): 14.1 µM
- GI50 (RPMI-8226 leukemia): 1.47 µM
- TGI (RPMI-8226 leukemia): 8.12 µM
- GI50 (SK-OV-3 ovarian): 2.71 µM
- TGI (SK-OV-3 ovarian): 13.7 µM
- GI50 (T-47D breast): 1.97 µM
- TGI (T-47D breast): 12 µM
- GI50 (NCI-H522 lung): 1.6 µM
- TGI (NCI-H522 lung): 5.54 µM
- GI50 (CCRF-CEM leukemia): 1.27 µM
- TGI (CCRF-CEM leukemia): > 100 µM
- GI50 (LOX IMVI melanoma): 1.11 µM
- TGI (LOX IMVI melanoma): 2.49 µM
- GI50 (A549 NSCLC): 3.26 µM
- TGI (A549 NSCLC): 12.7 µM
- GI50 (SNB-19 CNS): 3.09 µM
- TGI (SNB-19 CNS): 12.4 µM
- GI50 (SK-MEL-2 melanoma): 2.92 µM
- TGI (SK-MEL-2 melanoma): 11.9 µM
- GI50 (OVCAR-3 ovarian): 2.69 µM
- TGI (OVCAR-3 ovarian): 9.13 µM
- GI50 (TK-10 renal): 5.85 µM
- TGI (TK-10 renal): 15.1 µM
- GI50 (SNB-75 CNS): 0.568 µM
- TGI (SNB-75 CNS): 6.01 µM
- GI50 (HCT-116 colon): 2.68 µM
- TGI (HCT-116 colon): 10.6 µM
- GI50 (A498 renal): 4.03 µM
- TGI (A498 renal): 13.3 µM
- GI50 (CAKI-1 renal): 1.6 µM
- TGI (CAKI-1 renal): 9.87 µM
- GI50 (SF-268 CNS): 1.84 µM
- TGI (SF-268 CNS): 13.9 µM
- GI50 (OVCAR-4 ovarian): 4.07 µM
- TGI (OVCAR-4 ovarian): 17.8 µM
- GI50 (HS 578T breast): 2.13 µM
- TGI (HS 578T breast): 8.29 µM
- GI50 (MOLT-4 leukemia): 0.644 µM
- TGI (MOLT-4 leukemia): 18.5 µM
- GI50 (UACC-257 melanoma): 3.47 µM
- TGI (UACC-257 melanoma): 15.3 µM
- GI50 (MDA-MB-468 breast): 1.61 µM
- TGI (MDA-MB-468 breast): 4.2 µM
- GI50 (HCT-15 colon): 1.8 µM
- TGI (HCT-15 colon): 4.25 µM
- GI50 (KM12 colon): 1.67 µM
- TGI (KM12 colon): 5.88 µM
- GI50 (DU-145 prostate): 4.55 µM
- TGI (DU-145 prostate): 16 µM
- GI50 (MDA-MB-231 breast): 1.44 µM
- TGI (MDA-MB-231 breast): 3.64 µM
- GI50 (K-562 leukemia): 2.73 µM
- TGI (K-562 leukemia): > 100 µM
- GI50 (ACHN renal): 2.66 µM
- TGI (ACHN renal): 10.5 µM
- GI50 (HT29 colon): 2.39 µM
- TGI (HT29 colon): 5.32 µM
- GI50 (MALME-3M melanoma): 3.26 µM
- TGI (MALME-3M melanoma): 15.3 µM
